Results as given in the supplement of paper PMC10307832.

How the values were obtained:
Assay in all cases: relative viability (nuclei count vs DMSO), 5 days (fraction); higher = more cells survive
[1] = compound: C[C@@H](N)c1ccc(C(=O)Nc2ccnc3[nH]ccc23)cc1 + CS(=O)(=O)CCNCc1ccc(-c2ccc3ncnc(Nc4ccc(OCc5cccc(F)c5)c(Cl)c4)c3c2)o1 [Lapatinib] (partner 2 µM)
Summary of the method: (§1)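 After 5 days of treatment, lung cancer cells in 1536-well plates were fixed and stained in a single step (final 0.05% Triton X-100, 1% formaldehyde, 1 ug/ml Hoechst) and their nuclei counted on 4× images. Treatment had been applied by pin tool the day after seeding as one drug alone or as a fixed anchor-drug dose with five library-drug doses (not always all listed) in √10 steps. Relative viability is the nuclei count of treated wells divided by that of vehicle wells, and values are medians of duplicate plates.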

[2] = compound: C1CNCCC1C2=CC(=NN2)C3=CC=NC=C3 + CCNC(=O)c1noc(-c2cc(C(C)C)c(O)cc2O)c1-c1ccc(CN2CCOCC2)cc1 [Luminespib] (partner 0.01 µM)
Summary of the method: as §1

[3] = compound: C1CNCCC1C2=CC(=NN2)C3=CC=NC=C3 + NC(=O)Nc1cc(-c2cccc(F)c2)sc1C(=O)N[C@H]1CCCNC1 [AZD7762] (partner 0.2 µM)
Summary of the method: as §1

[4] = compound: C1CNCCC1C2=CC(=NN2)C3=CC=NC=C3 + C[C@@H](Oc1cc(-c2cnn(C3CCNCC3)c2)cnc1N)c1c(Cl)ccc(F)c1Cl [Crizotinib] (partner 1 µM)
Summary of the method: as §1

NCI-H1395
relative viability ([1]; first compound 0.04 µM): 0.935 | relative viability ([1]; first compound 0.1265 µM): 1.2 | relative viability ([1]; first compound 0.4 µM): 0.954 | relative viability ([1]; first compound 4 µM): 0.941 | relative viability ([2]; first compound 0.08 µM): 0.771 | relative viability ([2]; first compound 0.8 µM): 0.692 | relative viability ([2]; first compound 2.53 µM): 0.563 | relative viability ([2]; first compound 8 µM): 0.764 | relative viability ([3]; first compound 0.08 µM): 0.389 | relative viability ([3]; first compound 0.8 µM): 0.437 | relative viability ([3]; first compound 2.53 µM): 0.405 | relative viability ([3]; first compound 8 µM): 0.398

NCI-H2009
relative viability ([1]; first compound 0.04 µM): 0.682 | relative viability ([1]; first compound 0.1265 µM): 0.736 | relative viability ([1]; first compound 0.4 µM): 0.916 | relative viability ([1]; first compound 1.265 µM): 0.114 | relative viability ([1]; first compound 4 µM): 0.747 | relative viability ([4]; first compound 0.08 µM): 0.96 | relative viability ([4]; first compound 0.8 µM): 1.08 | relative viability ([4]; first compound 2.53 µM): 1.08 | relative viability ([4]; first compound 8 µM): 1.03 | relative viability ([2]; first compound 0.08 µM): 0.995 | relative viability ([2]; first compound 0.8 µM): 1.09 | relative viability ([2]; first compound 2.53 µM): 1.02 | relative viability ([2]; first compound 8 µM): 1.01

NCI-H1651
relative viability ([1]; first compound 0.04 µM): 1.04 | relative viability ([1]; first compound 0.1265 µM): 0.859 | relative viability ([1]; first compound 0.4 µM): 0.975 | relative viability ([1]; first compound 1.265 µM): 0.784 | relative viability ([1]; first compound 4 µM): 0.967 | relative viability ([4]; first compound 0.08 µM): 0.825 | relative viability ([4]; first compound 0.8 µM): 0.832 | relative viability ([4]; first compound 2.53 µM): 0.872 | relative viability ([4]; first compound 8 µM): 0.854 | relative viability ([2]; first compound 0.08 µM): 0.719 | relative viability ([2]; first compound 0.8 µM): 1.11 | relative viability ([2]; first compound 2.53 µM): 0.807 | relative viability ([2]; first compound 8 µM): 0.838 | relative viability ([3]; first compound 0.08 µM): 0.463 | relative viability ([3]; first compound 0.8 µM): 0.427 | relative viability ([3]; first compound 2.53 µM): 0.488 | relative viability ([3]; first compound 8 µM): 0.543

HARA
relative viability ([1]; first compound 0.04 µM): 0.829 | relative viability ([1]; first compound 0.1265 µM): 0.904 | relative viability ([1]; first compound 0.4 µM): 0.79 | relative viability ([1]; first compound 1.265 µM): 0.803 | relative viability ([1]; first compound 4 µM): 0.702 | relative viability ([4]; first compound 0.08 µM): 1.05 | relative viability ([4]; first compound 0.8 µM): 1.08 | relative viability ([4]; first compound 2.53 µM): 1.05 | relative viability ([4]; first compound 8 µM): 1.03 | relative viability ([2]; first compound 0.08 µM): 0.647 | relative viability ([2]; first compound 0.8 µM): 0.72 | relative viability ([2]; first compound 2.53 µM): 0.793 | relative viability ([2]; first compound 8 µM): 0.687 | relative viability ([3]; first compound 0.08 µM): 0.328 | relative viability ([3]; first compound 0.8 µM): 0.306 | relative viability ([3]; first compound 2.53 µM): 0.295 | relative viability ([3]; first compound 8 µM): 0.258

NCI-H1944
relative viability ([1]; first compound 0.04 µM): 0.759 | relative viability ([1]; first compound 0.1265 µM): 0.841 | relative viability ([1]; first compound 0.4 µM): 0.769 | relative viability ([1]; first compound 4 µM): 0.699 | relative viability ([4]; first compound 0.08 µM): 1.06 | relative viability ([4]; first compound 0.8 µM): 1.08 | relative viability ([4]; first compound 2.53 µM): 1.1 | relative viability ([4]; first compound 8 µM): 1.08 | relative viability ([2]; first compound 0.08 µM): 0.665 | relative viability ([2]; first compound 0.8 µM): 0.691 | relative viability ([2]; first compound 2.53 µM): 0.81 | relative viability ([2]; first compound 8 µM): 0.693 | relative viability ([3]; first compound 0.08 µM): 0.442 | relative viability ([3]; first compound 0.8 µM): 0.467 | relative viability ([3]; first compound 2.53 µM): 0.477 | relative viability ([3]; first compound 8 µM): 0.503

NCI-H2347
relative viability ([1]; first compound 0.04 µM): 0.833 | relative viability ([1]; first compound 0.1265 µM): 0.959 | relative viability ([1]; first compound 0.4 µM): 0.933 | relative viability ([1]; first compound 1.265 µM): 0.347 | relative viability ([1]; first compound 4 µM): 0.868 | relative viability ([4]; first compound 0.08 µM): 0.681 | relative viability ([4]; first compound 0.8 µM): 0.676 | relative viability ([4]; first compound 2.53 µM): 0.939 | relative viability ([4]; first compound 8 µM): 0.781 | relative viability ([2]; first compound 0.08 µM): 0.366 | relative viability ([2]; first compound 0.8 µM): 0.5 | relative viability ([2]; first compound 2.53 µM): 0.511 | relative viability ([2]; first compound 8 µM): 0.564 | relative viability ([3]; first compound 0.08 µM): 0.763 | relative viability ([3]; first compound 0.8 µM): 0.494 | relative viability ([3]; first compound 2.53 µM): 0.745 | relative viability ([3]; first compound 8 µM): 0.76

201T
relative viability ([1]; first compound 0.04 µM): 1 | relative viability ([1]; first compound 0.1265 µM): 0.989 | relative viability ([1]; first compound 0.4 µM): 1.09 | relative viability ([1]; first compound 1.265 µM): 0.971 | relative viability ([1]; first compound 4 µM): 1.24 | relative viability ([4]; first compound 0.08 µM): 1.01 | relative viability ([4]; first compound 0.8 µM): 1.01 | relative viability ([4]; first compound 2.53 µM): 1.02 | relative viability ([4]; first compound 8 µM): 0.991 | relative viability ([2]; first compound 0.08 µM): 1.03 | relative viability ([2]; first compound 0.8 µM): 1.04 | relative viability ([2]; first compound 2.53 µM): 1.13 | relative viability ([2]; first compound 8 µM): 1.01 | relative viability ([3]; first compound 0.08 µM): 0.645 | relative viability ([3]; first compound 0.8 µM): 0.65 | relative viability ([3]; first compound 2.53 µM): 0.654 | relative viability ([3]; first compound 8 µM): 0.562

Calu-6
relative viability ([1]; first compound 0.04 µM): 1.09 | relative viability ([1]; first compound 0.1265 µM): 1.08 | relative viability ([1]; first compound 0.4 µM): 1.1 | relative viability ([1]; first compound 1.265 µM): 0.902 | relative viability ([1]; first compound 4 µM): 0.832 | relative viability ([4]; first compound 0.08 µM): 0.838 | relative viability ([4]; first compound 0.8 µM): 0.91 | relative viability ([4]; first compound 2.53 µM): 0.833 | relative viability ([4]; first compound 8 µM): 0.814

NCI-H1703
relative viability ([1]; first compound 0.04 µM): 1.24 | relative viability ([1]; first compound 0.1265 µM): 0.982 | relative viability ([1]; first compound 0.4 µM): 0.85 | relative viability ([1]; first compound 1.265 µM): 0.847 | relative viability ([1]; first compound 4 µM): 0.541 | relative viability ([4]; first compound 0.08 µM): 0.823 | relative viability ([4]; first compound 0.8 µM): 0.813 | relative viability ([4]; first compound 2.53 µM): 0.824 | relative viability ([4]; first compound 8 µM): 1.01 | relative viability ([3]; first compound 0.8 µM): 0.104 | relative viability ([3]; first compound 8 µM): 0.133

NCI-H1650
relative viability ([1]; first compound 0.04 µM): 0.701 | relative viability ([1]; first compound 0.1265 µM): 0.63 | relative viability ([1]; first compound 0.4 µM): 0.772 | relative viability ([1]; first compound 1.265 µM): 0.155 | relative viability ([1]; first compound 4 µM): 0.834 | relative viability ([4]; first compound 0.08 µM): 0.43 | relative viability ([4]; first compound 0.8 µM): 1.08 | relative viability ([4]; first compound 2.53 µM): 1.07 | relative viability ([4]; first compound 8 µM): 0.963 | relative viability ([2]; first compound 0.08 µM): 0.246 | relative viability ([2]; first compound 0.8 µM): 0.209 | relative viability ([2]; first compound 2.53 µM): 0.201 | relative viability ([2]; first compound 8 µM): 0.223

NCI-H2342
relative viability ([2]; first compound 0.08 µM): 0.716 | relative viability ([2]; first compound 0.8 µM): 0.781 | relative viability ([2]; first compound 2.53 µM): 0.888 | relative viability ([2]; first compound 8 µM): 0.857 | relative viability ([3]; first compound 0.08 µM): 0.572 | relative viability ([3]; first compound 0.8 µM): 0.351 | relative viability ([3]; first compound 2.53 µM): 0.57 | relative viability ([3]; first compound 8 µM): 0.591

COR-L23
relative viability ([1]; first compound 0.04 µM): 0.948 | relative viability ([1]; first compound 0.1265 µM): 1.01 | relative viability ([1]; first compound 0.4 µM): 0.897 | relative viability ([1]; first compound 1.265 µM): 0.895 | relative viability ([1]; first compound 4 µM): 0.576 | relative viability ([4]; first compound 0.08 µM): 0.651 | relative viability ([4]; first compound 0.8 µM): 0.615 | relative viability ([4]; first compound 2.53 µM): 0.719 | relative viability ([4]; first compound 8 µM): 0.695 | relative viability ([2]; first compound 0.08 µM): 0.481 | relative viability ([2]; first compound 0.8 µM): 0.838 | relative viability ([2]; first compound 2.53 µM): 0.64 | relative viability ([2]; first compound 8 µM): 0.671
